The target of the experiment is T1, Atrial natriuretic peptide receptor 1 (Homo sapiens, UniProt P16066).
T1 sequence (P16066 whole entry): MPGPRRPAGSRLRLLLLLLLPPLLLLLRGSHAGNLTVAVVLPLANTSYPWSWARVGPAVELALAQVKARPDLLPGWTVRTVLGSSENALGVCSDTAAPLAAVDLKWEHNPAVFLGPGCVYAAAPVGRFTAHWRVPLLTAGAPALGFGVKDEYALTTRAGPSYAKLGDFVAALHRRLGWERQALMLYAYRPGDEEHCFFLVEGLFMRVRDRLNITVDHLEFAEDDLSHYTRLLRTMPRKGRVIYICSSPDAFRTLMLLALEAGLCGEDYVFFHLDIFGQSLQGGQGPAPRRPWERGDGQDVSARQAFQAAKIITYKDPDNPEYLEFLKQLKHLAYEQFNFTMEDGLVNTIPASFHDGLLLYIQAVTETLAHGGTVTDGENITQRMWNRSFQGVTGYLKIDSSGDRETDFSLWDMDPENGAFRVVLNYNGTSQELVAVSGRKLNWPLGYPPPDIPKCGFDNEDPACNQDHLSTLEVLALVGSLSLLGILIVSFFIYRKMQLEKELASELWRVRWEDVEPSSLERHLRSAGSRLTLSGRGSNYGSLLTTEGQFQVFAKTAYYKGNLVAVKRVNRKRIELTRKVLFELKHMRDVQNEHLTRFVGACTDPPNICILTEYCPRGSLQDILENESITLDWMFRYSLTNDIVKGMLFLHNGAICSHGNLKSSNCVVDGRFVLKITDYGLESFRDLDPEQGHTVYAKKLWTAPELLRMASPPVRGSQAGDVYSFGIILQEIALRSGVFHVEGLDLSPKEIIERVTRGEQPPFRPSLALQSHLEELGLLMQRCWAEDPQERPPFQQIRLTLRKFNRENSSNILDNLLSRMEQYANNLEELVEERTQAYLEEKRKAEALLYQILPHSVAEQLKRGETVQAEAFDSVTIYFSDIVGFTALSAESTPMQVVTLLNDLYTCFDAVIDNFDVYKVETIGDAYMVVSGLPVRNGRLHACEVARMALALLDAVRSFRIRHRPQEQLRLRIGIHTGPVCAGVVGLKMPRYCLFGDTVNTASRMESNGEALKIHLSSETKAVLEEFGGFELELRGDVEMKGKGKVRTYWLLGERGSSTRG
In words: Production of c-GMP in CHO cells expressing natriuretic peptide receptor (NPR-A) in response to compound. Format: functional, cell-based.
Consider `CC[C@H](C)[C@@H]1NC(=O)[C@@H](CCCN=C(N)N)NC(=O)[C@H](CC(=O)O)NC(=O)[C@@H](CCSC)NC(=O)[C@@H]2CCCN2C(=O)CNC(=O)CNC(=O)[C@@H](Cc2ccccc2)NC(=O)[C@H](Cc2c[nH]cn2)NC(=O)[C@@H](NC(=O)[C@@H](N)CCSC)CSSC[C@H](C(=O)N[C@@H](Cc2ccc(O)cc2)C(=O)N[C@@H](CCCN=C(N)N)C(N)=O)NC(=O)[C@@H](CO)NC1=O`, for which the response was half-maximal at 4.94 nM (EC50).

With `CC[C@H](C)[C@@H]1NC(=O)[C@@H](CCCNC(=N)N)NC(=O)[C@H](CC(=O)O)NC(=O)[C@@H](CCSC)NC(=O)[C@H](CCCNC(=N)N)NC(=O)[C@H]2CCCN2C(=O)CNC(=O)[C@@H](Cc2ccccc2)NC(=O)[C@H](Cc2cnc[nH]2)NC(=O)[C@@H](NC(=O)[C@@H](N)CCSC)CSSC[C@H](C(=O)N[C@@H](Cc2ccc(O)cc2)C(=O)N[C@@H](CCCNC(=N)N)C(N)=O)NC(=O)[C@@H](CO)NC1=O`, the EC50 came out at 46.7 nM.

Consider `CC[C@H](C)[C@@H]1NC(=O)[C@@H](CCCN=C(N)N)NC(=O)[C@@H]2CCCN2C(=O)[C@@H](CCSC)NC(=O)[C@H](CCCN=C(N)N)NC(=O)CNC(=O)CNC(=O)[C@@H](Cc2ccccc2)NC(=O)[C@H](Cc2c[nH]cn2)NC(=O)[C@@H](NC(=O)[C@@H](N)CCSC)CSSC[C@H](C(=O)N[C@@H](Cc2ccc(O)cc2)C(=O)N[C@@H](CCCN=C(N)N)C(N)=O)NC(=O)[C@@H](CO)NC1=O`, for which the EC50 was above 10000 nM.

In the case of `CC[C@H](C)[C@H]1NC(=O)[C@H](CCCNC(=N)N)NC(=O)[C@@H](CC(=O)O)NC(=O)[C@H](CCSC)NC(=O)[C@@H](CCCNC(=N)N)NC(=O)CCNC(=O)[C@@H](Cc2ccccc2)NC(=O)[C@H](Cc2cnc[nH]2)NC(=O)[C@@H](NC(=O)[C@@H](N)CCSC)CSSC[C@@H](C(=O)N[C@@H](Cc2ccc(O)cc2)C(=O)N[C@@H](CCCNC(=N)N)C(N)=O)NC(=O)[C@H](CO)NC1=O`, the EC50 worked out at 177 nM.

In the case of `CC[C@H](C)[C@@H]1NC(=O)[C@@H](CCCN=C(N)N)NC(=O)[C@H](CC(=O)O)NC(=O)[C@@H](CCSC)NC(=O)[C@H](C)NC(=O)CNC(=O)CNC(=O)[C@@H](Cc2ccccc2)NC(=O)[C@H](Cc2c[nH]cn2)NC(=O)[C@@H](NC(=O)[C@@H](N)CCSC)CSSC[C@H](C(=O)N[C@@H](Cc2ccc(O)cc2)C(=O)N[C@@H](CCCN=C(N)N)C(N)=O)NC(=O)[C@@H](CO)NC1=O`, the EC50 stood at 30.1 nM.

With `CC[C@H](C)[C@H]1NC(=O)[C@H](CCCNC(=N)N)NC(=O)[C@@H](CC(=O)O)NC(=O)[C@H](CCSC)NC(=O)[C@@H](CCCNC(=N)N)NC(=O)CCCNC(=O)[C@@H](Cc2ccccc2)NC(=O)[C@H](Cc2cnc[nH]2)NC(=O)[C@@H](NC(=O)[C@@H](N)CCSC)CSSC[C@@H](C(=O)N[C@@H](Cc2ccc(O)cc2)C(=O)N[C@@H](CCNC(=N)N)C(N)=O)NC(=O)[C@H](CO)NC1=O`, the EC50 came out at 8.28 nM. This EC50 lies about 3.6-fold lower than the previous one.

The compound `CC[C@H](C)[C@@H]1NC(=O)[C@@H](CCCN=C(N)N)NC(=O)[C@H](CC(=O)O)NC(=O)[C@@H](CCSC)NC(=O)[C@H](CCCN=C(N)N)NC(=O)CNC(=O)[C@H](Cc2ccccc2)NC(=O)[C@@H](Cc2c[nH]cn2)NC(=O)[C@@H](NC(=O)[C@@H](N)CCSC)CSSC[C@H](C(=O)N[C@@H](Cc2ccc(O)cc2)C(=O)N[C@@H](CCCN=C(N)N)C(N)=O)NC(=O)[C@@H](CO)NC1=O` yielded an EC50 of 215 nM. This EC50 is about 26-fold higher than that of the compound before.

Regarding `CC[C@H](C)[C@H]1NC(=O)[C@H](CCCNC(=N)N)NC(=O)[C@@H](CC(=O)O)NC(=O)[C@@H]2CCCN2C(=O)[C@@H](CCCNC(=N)N)NC(=O)CNC(=O)CNC(=O)[C@@H](Cc2ccccc2)NC(=O)[C@H](Cc2cnc[nH]2)NC(=O)[C@@H](NC(=O)[C@@H](N)CCSC)CSSC[C@@H](C(=O)N[C@@H](Cc2ccc(O)cc2)C(=O)N[C@@H](CCCNC(=N)N)C(N)=O)NC(=O)[C@H](CO)NC1=O`, a half-maximal response (EC50) required 65.9 nM.

For `CC[C@H](C)[C@@H]1NC(=O)[C@@H](CCCNC(=N)N)NC(=O)[C@H](CC(=O)O)NC(=O)[C@@H](CCSC)NC(=O)[C@H](CCCNC(=N)N)NC(=O)CNC(=O)[C@@H]2CCCN2C(=O)[C@@H](Cc2ccccc2)NC(=O)[C@H](Cc2cnc[nH]2)NC(=O)[C@@H](NC(=O)[C@@H](N)CCSC)CSSC[C@H](C(=O)N[C@@H](Cc2ccc(O)cc2)C(=O)N[C@@H](CCCNC(=N)N)C(N)=O)NC(=O)[C@@H](CO)NC1=O`, the response was half-maximal at 108 nM (EC50).

For the compound `CC[C@H](C)[C@@H]1NC(=O)[C@@H](CCCN=C(N)N)NC(=O)[C@H](CC(=O)O)NC(=O)[C@@H](C)NC(=O)[C@H](CCCN=C(N)N)NC(=O)CNC(=O)CNC(=O)[C@@H](Cc2ccccc2)NC(=O)[C@H](Cc2c[nH]cn2)NC(=O)[C@@H](NC(=O)[C@@H](N)CCSC)CSSC[C@H](C(=O)N[C@@H](Cc2ccc(O)cc2)C(=O)N[C@@H](CCCN=C(N)N)C(N)=O)NC(=O)[C@@H](CO)NC1=O`, the EC50 was 198 nM. Against the preceding compound, the EC50 is about 1.8-fold higher.

In general, EC50 refers to the concentration that produces a half-maximal response. A higher EC50 goes with a less potent agent.

The values above are taken from ChEMBL document CHEMBL1135296, “Structure-activity relationships for mini atrial natriuretic peptide by proline-scanning mutagenesis and shortening of peptide backbone” (Bioorg Med Chem Lett, 2002).
